In ChEMBL document CHEMBL5385844, “Discovery of novel imidazole chemotypes as isoform-selective JNK3 inhibitors for the treatment of Alzheimer's disease” (Eur J Med Chem, 2023):
pIC50: −log10 of the molar value. Active and inactive are the calls of the source. No cut-off for these calls is given here.

Assays:
[1] = molecular target: Mitogen-activated protein kinase 10 (Rattus norvegicus) (UniProt P49187); experiment: Inhibition of JNK3 mediated anisomycin-induced APP phosphorylation in rat cortical neurons at 10 to 20 uM incubated for 24 hrs by Western blot analysis; format: cell-based; conditions: Cortical neuron, dose 10-20 µM
[2] = Efflux ratio of apparent permeability basolateral to apical side over apical to basolateral side in human Caco-2 cells at 10 uM incubated for 1 hr by LC-MS/MS analysis; format: ADME, cell-based
[3] = Apparent permeability across basolateral to apical side in human Caco-2 cells at 10 uM incubated for 1 hr by LC-MS/MS analysis; format: ADME, cell-based
Mus musculus [4] = experiment: Anti-alzheimer activity against homozygous 3 x Tg mouse model assessed as escape latency time at 60 mg/kg, po administered daily for 2 months and measured after 60 days of treatment by Passive avoidance test (reference value: 43.44 +/- 7.35 sec); format: functional; conditions: 1460 h
Mus musculus [5] = experiment: Anti-alzheimer activity against homozygous 3 x Tg mouse model assessed as spontaneous alteration at 30 mg/kg, po administered daily for 2 months and measured after 57 days of treatment by Y-maze test (reference value: 46.81 +/- 2.76%); format: functional; conditions: 1460 h
[6] = Toxicity in APP/PS1 mouse assessed as weight change at 30 mg/kg, po treated 3 times/week for 1 month; format: organism-based; conditions: in vivo, 730 h, time 1 months
[7] = Toxicity in APP/PS1 mouse assessed as abnormal symptoms at 30 mg/kg, po treated 3 times/week for 1 month; format: organism-based; conditions: in vivo, 730 h, time 1 months
Mus musculus [8] = experiment: Anti-alzheimer activity against APP/PS1 dE9 double transgenic mouse model assessed as time spent in platform quadrant at 30 mg/kg, po administered 3 times/week for 1 month and measured after 40 to 45 days of treatment by Morris water maze test (reference value: 11.06 +/- 1.53 %); format: functional; conditions: time 27 day
Mus musculus [9] = experiment: Anti-alzheimer activity against APP/PS1 dE9 double transgenic mouse model assessed as time spent in platform quadrant at 10 mg/kg, po administered 3 times/week for 1 month and measured after 40 to 45 days of treatment by Morris water maze test (reference value: 11.06 +/- 1.53 %); format: functional; conditions: time 27 day
Mus musculus [10] = experiment: Anti-alzheimer activity against APP/PS1 dE9 double transgenic mouse model assessed as escape latency time at 30 mg/kg, po administered 3 times/week for 1 month and measured after 27 days of treatment by Passive avoidance test (reference value: 18.5 +/- 2.3 sec); format: functional; conditions: time 27 day
Mus musculus [11] = experiment: Anti-alzheimer activity against APP/PS1 dE9 double transgenic mouse model assessed as escape latency time at 10 mg/kg, po administered 3 times/week for 1 month and measured after 27 days of treatment by Passive avoidance test (reference value: 18.5 +/- 2.3 sec); format: functional; conditions: time 27 day
[12] = Brain to Plasma ratio in Sprague-Dawley rat at 30 mg/kg, po measured at Tmax; format: ADME, organism-based; conditions: read-out: BPR
[13] = Drug uptake in Sprague-Dawley rat brain at 30 mg/kg, po measured at Tmax; format: ADME, organism-based; conditions: in vivo
Mus musculus [14] = experiment: Anti-alzheimer activity against APP/PS1 dE9 double transgenic mouse model assessed as spontaneous alteration at 10 mg/kg, po administered 3 times/week for 1 month and measured after 27 days of treatment by Y-maze test (reference value: 46.70 +/- 3.32%); format: functional; conditions: time 1 months, 730 h
[15] = Toxicity in APP/PS1 mouse assessed as weight change at 10 mg/kg, po treated 3 times/week for 1 month; format: organism-based; conditions: in vivo, 730 h, time 1 months
[16] = Oral bioavailability in Sprague-Dawley rat at 3 mg/kg measured upto 24 hrs by UPLC analysis; format: ADME, organism-based; conditions: in vivo
[17] = Cmax in Sprague-Dawley rat at 3 mg/kg, po measured upto 24 hrs by UPLC analysis; format: ADME, organism-based; set-up: dose 3 mg/kg, time < 24 hrs, route po; conditions: in vivo
[18] = AUC in Sprague-Dawley rat at 1 mg/kg, iv measured upto 24 hrs by UPLC analysis; format: ADME, organism-based; set-up: dose 1 mg/kg, time < 24 hrs, route iv; conditions: in vivo
[19] = AUC in Sprague-Dawley rat at 3 mg/kg, po measured upto 24 hrs by UPLC analysis; format: ADME, organism-based; set-up: time < 24 hrs, dose 3 mg/kg, route po; conditions: in vivo
Cortical neurone = experiment: Neuroprotective activity against Amyloid beta (1 to 42)-induced toxicity in rat cortical neuron assessed as cell viability at 20 uM measured after 48 hrs by MTT assay; format: functional; conditions: read-out: Activity
[20] = molecular target: T1, Mitogen-activated protein kinase 8 (Homo sapiens, UniProt P45983); experiment: Inhibition of human JNK1 incubated for 40 mins in presence of ATP and [gamma33P-ATP] by scintillation counting method
[21] = molecular target: Glycogen synthase kinase-3 alpha (Homo sapiens, UniProt P49840); experiment: Inhibition of human GSK3alpha assessed as incorporation of 33P-ATP
[22] = molecular target: Glycogen synthase kinase-3 beta (Homo sapiens, UniProt P49841); experiment: Inhibition of human GSK3beta assessed as incorporation of 33P-ATP
[23] = molecular target: T2, Dual specificity mitogen-activated protein kinase kinase 6 (Homo sapiens, UniProt P52564); experiment: Inhibition of MKK6 (unknown origin) assessed as incorporation of 33P-ATP
T2 sequence (P52564 whole entry): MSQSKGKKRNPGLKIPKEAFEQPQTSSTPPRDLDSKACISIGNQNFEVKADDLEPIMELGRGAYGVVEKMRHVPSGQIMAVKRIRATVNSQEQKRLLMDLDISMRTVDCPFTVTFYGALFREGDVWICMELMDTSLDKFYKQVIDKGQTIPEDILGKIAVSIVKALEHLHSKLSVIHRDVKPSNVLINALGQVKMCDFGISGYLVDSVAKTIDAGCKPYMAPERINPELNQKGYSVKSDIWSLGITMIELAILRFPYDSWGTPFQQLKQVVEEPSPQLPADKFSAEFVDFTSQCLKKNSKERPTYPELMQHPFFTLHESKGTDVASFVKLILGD

[24] = molecular target: Mitogen-activated protein kinase 14 (Homo sapiens, UniProt Q16539); experiment: Inhibition of human SAPK2a assessed as incorporation of 33P-ATP
[25] = Inhibition of human SAPK2a T106 mutant assessed as incorporation of 33P-ATP
[26] = molecular target: Mitogen-activated protein kinase 11 (Homo sapiens, UniProt Q15759); experiment: Inhibition of human SAPK2b assessed as incorporation of 33P-ATP
[27] = molecular target: T3, Dual specificity mitogen-activated protein kinase kinase 4 (Homo sapiens, UniProt P45985); experiment: Inhibition of MKK4 (unknown origin) assessed as incorporation of 33P-ATP
T3 sequence (P45985 whole entry): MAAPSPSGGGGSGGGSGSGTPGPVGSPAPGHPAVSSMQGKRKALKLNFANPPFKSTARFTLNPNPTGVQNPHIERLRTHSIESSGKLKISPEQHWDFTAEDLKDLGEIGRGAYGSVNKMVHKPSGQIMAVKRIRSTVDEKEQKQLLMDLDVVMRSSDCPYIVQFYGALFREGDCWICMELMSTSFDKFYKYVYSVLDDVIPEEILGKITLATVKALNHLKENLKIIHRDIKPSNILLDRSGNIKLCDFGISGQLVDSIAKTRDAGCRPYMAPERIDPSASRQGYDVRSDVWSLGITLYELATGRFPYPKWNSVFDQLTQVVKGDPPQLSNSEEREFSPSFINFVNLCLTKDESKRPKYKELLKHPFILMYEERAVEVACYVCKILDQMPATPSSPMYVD

[28] = molecular target: T1, Mitogen-activated protein kinase 8; experiment: Inhibition of human JNK1alpha1 assessed as incorporation of 33P-ATP

T1 sequence (P45983 whole entry): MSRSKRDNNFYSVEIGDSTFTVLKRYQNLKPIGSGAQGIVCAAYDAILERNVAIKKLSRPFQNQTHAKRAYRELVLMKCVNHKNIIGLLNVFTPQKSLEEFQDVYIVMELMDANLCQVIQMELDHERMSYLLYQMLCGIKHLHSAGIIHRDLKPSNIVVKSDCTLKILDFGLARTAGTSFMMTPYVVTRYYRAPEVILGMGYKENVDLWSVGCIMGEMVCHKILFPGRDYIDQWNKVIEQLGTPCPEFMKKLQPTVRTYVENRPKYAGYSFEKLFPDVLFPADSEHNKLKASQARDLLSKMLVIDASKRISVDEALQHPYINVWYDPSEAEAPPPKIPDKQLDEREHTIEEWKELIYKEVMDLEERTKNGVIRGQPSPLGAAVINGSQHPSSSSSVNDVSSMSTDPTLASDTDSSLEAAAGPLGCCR
Chain of Mitogen-activated protein kinase 11 (Q15759 whole entry): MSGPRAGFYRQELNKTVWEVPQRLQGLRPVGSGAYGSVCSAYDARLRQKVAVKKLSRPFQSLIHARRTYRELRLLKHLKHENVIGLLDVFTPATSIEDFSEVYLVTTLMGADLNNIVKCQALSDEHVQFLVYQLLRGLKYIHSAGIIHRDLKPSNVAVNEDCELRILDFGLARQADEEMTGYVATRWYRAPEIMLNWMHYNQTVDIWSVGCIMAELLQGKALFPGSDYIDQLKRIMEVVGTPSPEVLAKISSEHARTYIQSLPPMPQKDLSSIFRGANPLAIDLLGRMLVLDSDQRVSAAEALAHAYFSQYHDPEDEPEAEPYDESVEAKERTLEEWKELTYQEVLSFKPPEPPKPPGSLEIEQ
Chain of Glycogen synthase kinase-3 alpha (P49840 whole entry): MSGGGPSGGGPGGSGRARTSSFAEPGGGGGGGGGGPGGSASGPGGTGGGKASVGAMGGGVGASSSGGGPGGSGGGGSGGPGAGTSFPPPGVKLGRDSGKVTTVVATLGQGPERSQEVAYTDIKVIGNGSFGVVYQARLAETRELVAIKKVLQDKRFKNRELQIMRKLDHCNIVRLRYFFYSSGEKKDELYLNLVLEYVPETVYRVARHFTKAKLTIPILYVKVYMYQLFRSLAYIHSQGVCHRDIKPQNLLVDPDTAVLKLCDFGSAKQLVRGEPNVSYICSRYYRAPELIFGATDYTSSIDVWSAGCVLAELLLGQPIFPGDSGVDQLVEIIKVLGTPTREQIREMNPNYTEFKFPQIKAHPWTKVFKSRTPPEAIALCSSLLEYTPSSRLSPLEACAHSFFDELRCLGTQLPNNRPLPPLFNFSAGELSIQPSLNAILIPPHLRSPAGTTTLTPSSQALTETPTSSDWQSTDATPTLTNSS
Chain of Mitogen-activated protein kinase 14 (Q16539 whole entry): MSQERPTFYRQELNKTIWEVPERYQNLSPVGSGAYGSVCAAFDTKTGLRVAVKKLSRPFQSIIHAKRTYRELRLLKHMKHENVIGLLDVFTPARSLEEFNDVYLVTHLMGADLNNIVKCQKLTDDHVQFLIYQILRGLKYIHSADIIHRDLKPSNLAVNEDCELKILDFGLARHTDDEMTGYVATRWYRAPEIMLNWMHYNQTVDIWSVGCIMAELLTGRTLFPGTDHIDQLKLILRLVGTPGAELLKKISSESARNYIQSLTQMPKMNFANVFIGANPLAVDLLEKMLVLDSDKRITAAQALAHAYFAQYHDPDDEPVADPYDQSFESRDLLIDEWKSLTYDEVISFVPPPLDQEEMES
Chain of Glycogen synthase kinase-3 beta (P49841 whole entry): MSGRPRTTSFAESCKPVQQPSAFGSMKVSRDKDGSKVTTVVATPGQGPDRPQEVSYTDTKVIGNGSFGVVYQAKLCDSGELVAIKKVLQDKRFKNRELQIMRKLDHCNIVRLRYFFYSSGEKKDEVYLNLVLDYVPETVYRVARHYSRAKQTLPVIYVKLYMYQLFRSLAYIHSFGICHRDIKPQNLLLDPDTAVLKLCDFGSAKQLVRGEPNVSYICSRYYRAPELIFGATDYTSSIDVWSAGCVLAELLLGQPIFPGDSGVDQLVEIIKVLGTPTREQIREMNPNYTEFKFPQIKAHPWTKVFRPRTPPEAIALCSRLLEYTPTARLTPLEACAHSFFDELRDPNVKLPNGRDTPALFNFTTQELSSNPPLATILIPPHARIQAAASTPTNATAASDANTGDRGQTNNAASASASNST
Chain of Mitogen-activated protein kinase 10 (Rattus norvegicus) (P49187 whole entry): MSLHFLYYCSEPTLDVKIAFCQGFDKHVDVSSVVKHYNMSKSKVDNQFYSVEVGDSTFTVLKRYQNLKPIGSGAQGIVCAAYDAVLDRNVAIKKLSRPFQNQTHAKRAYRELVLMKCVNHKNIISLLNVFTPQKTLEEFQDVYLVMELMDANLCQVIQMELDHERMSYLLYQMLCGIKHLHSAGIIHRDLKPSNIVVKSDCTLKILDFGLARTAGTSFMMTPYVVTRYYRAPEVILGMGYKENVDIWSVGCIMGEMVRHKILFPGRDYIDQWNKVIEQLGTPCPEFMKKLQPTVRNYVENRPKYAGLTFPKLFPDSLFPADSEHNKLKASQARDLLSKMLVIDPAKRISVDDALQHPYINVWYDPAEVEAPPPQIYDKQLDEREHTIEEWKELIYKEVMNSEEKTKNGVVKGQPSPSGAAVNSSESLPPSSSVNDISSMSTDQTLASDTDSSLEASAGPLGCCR

N#CCc1cnc(-c2ccc3ccccc3c2)n1-c1ccnc(N[C@H]2CCCN(C(=O)C3CC3)C2)n1
inhibition [1]: Active
efflux ratio at 1 h, 10 µM [2]: 1.92
Papp B→A at 1 h, 10 µM [3]: 264 nm/s
Time (Mus musculus [4]): 59.82 s
Activity (Mus musculus [5]): 50.97%
Activity [6]: Non-Toxic
Activity [7]: Non-Toxic
Time (Mus musculus [8]): 15.06 s
Time (Mus musculus [9]): 10.53 s
Time (Mus musculus [10]): 49.5 s
Time (Mus musculus [11]): 31.7 s
Kp [12]: 0.02
Drug uptake [13]: 26 ng/g
Activity (Mus musculus [14]): 52.31%
Activity [15]: Non-Toxic
bioavailability [16]: 15.7%
Cmax [17]: 0.378 µg/mL
AUC at 24 h [18]: 0.718 µg·h/mL
AUC at 24 h [19]: 0.338 µg·h/mL
viability at 20 µM (Cortical neurone): 46.8%
pIC50 [20]: 6.53
pIC50 [21]: 5.24
pIC50 [22]: 4.93
pIC50 [23]: 4.82
pIC50 [24]: 6.51
pIC50 [25]: 5.92
pIC50 [26]: 6.55
pIC50 [27]: 6.01
pIC50 [28]: 6.07
